The values that follow come from ChEMBL document CHEMBL3414508, “A few atoms make the difference: synthetic, CD, NMR and computational studies on antiviral and antibacterial activities of glycopeptide antibiotic aglycon derivatives” (Eur J Med Chem, 2015).

Common to all, as to assay type: functional
The test system of one test is Bacillus spizizenii. Briefly: Antibacterial activity against Bacillus subtilis ATCC 6633 by broth microdilution method. On the technique in general: Broth dilution looks for growth in wells or tubes with falling amounts of substance.
Test [1] concerns Staphylococcus aureus. The experiment in a line: Antibacterial activity against methicillin-sensitive Staphylococcus aureus ATCC 29213 by broth microdilution method.
Test [2] relates to Staphylococcus aureus. Briefly: Antibacterial activity against methicillin-resistant Staphylococcus aureus ATCC 33591 by broth microdilution method.
In test [3] the test system is Staphylococcus epidermidis. The experiment in a line: Antibacterial activity against Staphylococcus epidermidis expressing mecA by broth microdilution method.
Test [4] concerns Staphylococcus epidermidis. Briefly: Antibacterial activity against biofilm producing Staphylococcus epidermidis ATCC 35984 by broth microdilution method.
The test system of test [5] is Enterococcus faecalis. Briefly: Antibacterial activity against Enterococcus faecalis ATCC 29212 by broth microdilution method.
Test [6] deals with Enterococcus faecalis. The experiment in a line: Antibacterial activity against VanA+ Enterococcus faecalis 15376 by broth microdilution method.
Test [7] relates to Enterococcus faecalis. Briefly: Antibacterial activity against VanB+ Enterococcus faecalis ATCC 51299 by broth microdilution method.

Values after ≈ are worked out from the molar mass of the structure shown.

With `COC(=O)[C@H]1NC(=O)[C@H]2NC(=O)[C@H](NC(=O)[C@@H]3NC(=O)[C@H]4NC(=O)[C@@H](Cc5ccc(c(Cl)c5)Oc5cc3cc(c5O)Oc3ccc(cc3Cl)[C@H]2O[C@@H]2O[C@H](CO)[C@@H](O)[C@H](O)[C@H]2NC(C)=O)NC(=O)[C@H](Nc2c(NCc3ccc(-c5ccccc5)cc3)c(=O)c2=O)c2ccc(O)c(c2)Oc2cc(O)cc4c2)c2ccc(O)c(c2)-c2c(O)cc(O)cc21`, the MIC was 8 µg/mL (≈ 4.77 µM) with Bacillus spizizenii; 2 µg/mL (≈ 1.19 µM) against Staphylococcus aureus [1]; 0.5 µg/mL (≈ 0.298 µM) against Staphylococcus aureus [2]; 0.5 µg/mL (≈ 0.298 µM) in test [3]; 0.5 µg/mL (≈ 0.298 µM) in test [4]; 0.5 µg/mL (≈ 0.298 µM) against Enterococcus faecalis [5]. In addition, the MIC with Enterococcus faecalis [6] and against Enterococcus faecalis [7] was 0.5 µg/mL (≈ 0.298 µM) throughout.
Turning to `COC(=O)[C@H]1NC(=O)[C@H]2NC(=O)[C@H](NC(=O)[C@@H]3NC(=O)[C@H]4NC(=O)[C@@H](Cc5ccc(c(Cl)c5)Oc5cc3cc(c5O)Oc3ccc(cc3Cl)[C@H]2O[C@@H]2O[C@H](CO)[C@@H](O)[C@H](O)[C@H]2NC(C)=O)NC(=O)[C@H](N)c2ccc(O)c(c2)Oc2cc(O)cc4c2)c2ccc(O)c(c2)-c2c(O)cc(O)cc21`, the MIC in the test with Bacillus spizizenii turned out to be 0.5 µg/mL (≈ 0.353 µM); against Staphylococcus aureus [1], 0.5 µg/mL (≈ 0.353 µM); against Staphylococcus aureus [2] it was 1 µg/mL (≈ 0.706 µM); in test [3] it was 0.5 µg/mL (≈ 0.353 µM); in test [4], 0.5 µg/mL (≈ 0.353 µM); in the test with Enterococcus faecalis [5], 2 µg/mL (≈ 1.41 µM). In addition, the MIC against Enterococcus faecalis [6] was determined as 0.5 µg/mL (≈ 0.353 µM); in the test with Enterococcus faecalis [7], 1 µg/mL (≈ 0.706 µM).
For `Cc1c(O)cc2cc1Oc1cc(ccc1O)[C@@H](N)C(=O)N[C@H]1C(=O)N[C@@H]2C(=O)N[C@H]2C(=O)N[C@H]3C(=O)N[C@H](C(=O)N[C@@H](C(=O)O)c4cc(O)cc(O[C@H]5O[C@H](CO)[C@@H](O)[C@H](O)[C@@H]5O)c4-c4cc3ccc4O)[C@H](O[C@H]3C[C@@H](N)[C@@H](O)[C@H](C)O3)c3ccc(cc3)Oc3cc2cc(c3O[C@H]2O[C@@H](CO[C@H]3O[C@H](C)[C@@H](O)[C@H](O)[C@@H]3O)[C@H](O)[C@@H](O)[C@@H]2O[C@H]2O[C@H](CO)[C@@H](O)[C@H](O)[C@@H]2O[C@H]2O[C@H](CO)[C@@H](O)[C@@H]2O)Oc2ccc(cc2)[C@H]1O` [RISTOCETIN], the MIC with Bacillus spizizenii amounted to 16 µg/mL (≈ 7.79 µM); against Staphylococcus aureus [1], 128 µg/mL (≈ 62.3 µM); against Staphylococcus aureus [2], 32 µg/mL (≈ 15.6 µM); in test [3], 128 µg/mL (≈ 62.3 µM); in test [4], 2 µg/mL (≈ 0.974 µM); with Enterococcus faecalis [5], 4 µg/mL (≈ 1.95 µM). For the same molecule, the MIC is 16 µg/mL (≈ 7.79 µM) in the test on Enterococcus faecalis [6] and 256 µg/mL (≈ 125 µM) with Enterococcus faecalis [7].
For `COC(=O)[C@H]1NC(=O)[C@H]2NC(=O)[C@H](NC(=O)[C@@H]3NC(=O)[C@H]4NC(=O)[C@@H](Cc5ccc(c(Cl)c5)Oc5cc3cc(c5O)Oc3ccc(cc3Cl)[C@H]2O[C@@H]2O[C@H](CO)[C@@H](O)[C@H](O)[C@H]2NC(C)=O)NC(=O)[C@H](Nc2c(OC)c(=O)c2=O)c2ccc(O)c(c2)Oc2cc(O)cc4c2)c2ccc(O)c(c2)-c2c(O)cc(O)cc21`, the MIC against Bacillus spizizenii came out at 8 µg/mL (≈ 5.24 µM); in the test with Staphylococcus aureus [1], 2 µg/mL (≈ 1.31 µM); in the test on Staphylococcus aureus [2] it was 8 µg/mL (≈ 5.24 µM); in test [3] it was 8 µg/mL (≈ 5.24 µM); in test [4] it was 4 µg/mL (≈ 2.62 µM); against Enterococcus faecalis [5], 2 µg/mL (≈ 1.31 µM). Further, the MIC in the test with Enterococcus faecalis [6] was determined as 0.5 µg/mL (≈ 0.328 µM); against Enterococcus faecalis [7] it was 4 µg/mL (≈ 2.62 µM).
For the molecule `COC(=O)[C@H]1NC(=O)[C@H]2NC(=O)[C@H](NC(=O)[C@@H]3NC(=O)[C@H]4NC(=O)[C@H](NC(=O)[C@H](Nc5c(NCc6ccc(-c7ccccc7)cc6)c(=O)c5=O)c5ccc(O)c(c5)Oc5cc4cc(O)c5C)[C@H](O)c4ccc(cc4)Oc4cc3cc(c4O)Oc3ccc(cc3)[C@H]2O)c2ccc(O)c(c2)-c2c(O)cc(O)cc21`, the MIC turned out to be 2 µg/mL (≈ 1.39 µM) with Bacillus spizizenii; 1 µg/mL (≈ 0.697 µM) in the test on Staphylococcus aureus [1]; 8 µg/mL (≈ 5.57 µM) in the test on Staphylococcus aureus [2]; 2 µg/mL (≈ 1.39 µM) in test [3]; 2 µg/mL (≈ 1.39 µM) in test [4]; 1 µg/mL (≈ 0.697 µM) against Enterococcus faecalis [5]. The MIC against Enterococcus faecalis [7] worked out at 8 µg/mL (≈ 5.57 µM).
Turning to `COC(=O)[C@H]1NC(=O)[C@H]2NC(=O)[C@H](NC(=O)[C@@H]3NC(=O)[C@H]4NC(=O)[C@@H](Cc5ccc(cc5)Oc5cc3cc(c5O)Oc3ccc(cc3)[C@H]2O)NC(=O)[C@H](Nc2c(NCc3ccc(-c5ccccc5)cc3)c(=O)c2=O)c2ccc(O)c(c2)Oc2cc(O)cc4c2)c2ccc(O)c(c2)-c2c(O)cc(O)cc21`, the MIC in the test on Bacillus spizizenii was 16 µg/mL (≈ 11.4 µM); against Staphylococcus aureus [1] it was 8 µg/mL (≈ 5.69 µM); against Staphylococcus aureus [2] it was 32 µg/mL (≈ 22.8 µM); in test [3] it was 8 µg/mL (≈ 5.69 µM); in test [4] it was 32 µg/mL (≈ 22.8 µM); against Enterococcus faecalis [5], 4 µg/mL (≈ 2.85 µM). Further, the MIC with Enterococcus faecalis [6] amounted to 16 µg/mL (≈ 11.4 µM); in the test on Enterococcus faecalis [7] it was 4 µg/mL (≈ 2.85 µM).
For the molecule `COC(=O)[C@H]1NC(=O)[C@H]2NC(=O)[C@H](NC(=O)[C@@H]3NC(=O)[C@H]4NC(=O)[C@@H](Cc5ccc(c(Cl)c5)Oc5cc3cc(c5O)Oc3ccc(cc3Cl)[C@H]2O)NC(=O)[C@H](Nc2c(NCc3ccc(-c5ccccc5)cc3)c(=O)c2=O)c2ccc(O)c(c2)Oc2cc(O)cc4c2)c2ccc(O)c(c2)-c2c(O)cc(O)cc21`, the MIC is 256 µg/mL (≈ 174 µM) in the test on Bacillus spizizenii; 128 µg/mL (≈ 86.8 µM) in the test with Staphylococcus aureus [1]; 256 µg/mL (≈ 174 µM) in the test on Staphylococcus aureus [2]; 32 µg/mL (≈ 21.7 µM) in test [3]; 256 µg/mL (≈ 174 µM) in test [4]; 64 µg/mL (≈ 43.4 µM) in the test on Enterococcus faecalis [5]. The figures for the MIC in the test on Enterococcus faecalis [6] and in the test with Enterococcus faecalis [7] were 128 µg/mL (≈ 86.8 µM) and 256 µg/mL (≈ 174 µM), respectively.
`O=C1N[C@H]2C(=O)N[C@H]3C(=O)N[C@H](C(=O)N[C@H](C(=O)O)c4cc(O)cc(O)c4-c4cc3ccc4O)[C@H](O)c3ccc(c(Cl)c3)Oc3cc2cc(c3O)Oc2ccc(cc2Cl)C[C@H]2NC(=O)[C@H](Nc3c(NCc4ccc(-c5ccccc5)cc4)c(=O)c3=O)c3ccc(O)c(c3)Oc3cc(O)cc(c3)[C@@H]1NC2=O`: the MIC came to 8 µg/mL (≈ 5.48 µM) in the test on Bacillus spizizenii; 2 µg/mL (≈ 1.37 µM) in the test on Staphylococcus aureus [1]; 2 µg/mL (≈ 1.37 µM) against Staphylococcus aureus [2]; 2 µg/mL (≈ 1.37 µM) in test [3]; 0.5 µg/mL (≈ 0.342 µM) in test [4]; 1 µg/mL (≈ 0.685 µM) against Enterococcus faecalis [5]. Moreover, the figures for the MIC against Enterococcus faecalis [6] and in the test on Enterococcus faecalis [7] were 1 µg/mL (≈ 0.685 µM) and 8 µg/mL (≈ 5.48 µM), respectively.
With `CC(=O)N[C@H]1[C@H](O[C@@H]2c3ccc(c(Cl)c3)Oc3cc4cc(c3O)Oc3ccc(cc3Cl)C[C@H]3NC(=O)[C@H](Nc5c(NCc6ccc(-c7ccccc7)cc6)c(=O)c5=O)c5ccc(O)c(c5)Oc5cc(O)cc(c5)[C@H](NC3=O)C(=O)N[C@H]4C(=O)N[C@H]3C(=O)N[C@@H]2C(=O)N[C@H](C(=O)O)c2cc(O)cc(O)c2-c2cc3ccc2O)O[C@H](CO)[C@@H](O)[C@@H]1O`, the MIC against Bacillus spizizenii worked out at 4 µg/mL (≈ 2.4 µM); with Staphylococcus aureus [1] it was 1 µg/mL (≈ 0.601 µM); against Staphylococcus aureus [2] it was 4 µg/mL (≈ 2.4 µM); in test [3] it was 1 µg/mL (≈ 0.601 µM); in test [4], 1 µg/mL (≈ 0.601 µM); against Enterococcus faecalis [5], 4 µg/mL (≈ 2.4 µM). Further, the MIC against Enterococcus faecalis [6] worked out at 256 µg/mL (≈ 154 µM); in the test with Enterococcus faecalis [7], 8 µg/mL (≈ 4.81 µM).
For the molecule `COc1c(N[C@H]2C(=O)N[C@@H]3Cc4ccc(c(Cl)c4)Oc4cc5cc(c4O)Oc4ccc(cc4Cl)[C@@H](O)[C@@H]4NC(=O)[C@H](NC(=O)[C@@H]5NC(=O)[C@@H](NC3=O)c3cc(O)cc(c3)Oc3cc2ccc3O)c2ccc(O)c(c2)-c2c(O)cc(O)cc2[C@@H](C(=O)O)NC4=O)c(=O)c1=O`, the MIC in the test on Bacillus spizizenii was determined as 16 µg/mL (≈ 12.2 µM); against Staphylococcus aureus [1], 1 µg/mL (≈ 0.764 µM); with Staphylococcus aureus [2] it was 2 µg/mL (≈ 1.53 µM); in test [3], 2 µg/mL (≈ 1.53 µM); in test [4], 2 µg/mL (≈ 1.53 µM); in the test with Enterococcus faecalis [5] it was 4 µg/mL (≈ 3.06 µM). Besides, the MIC turned out to be 2 µg/mL (≈ 1.53 µM) with Enterococcus faecalis [6] and 8 µg/mL (≈ 6.11 µM) in the test with Enterococcus faecalis [7].
